From PMC6901289 (Journal of medicinal chemistry, 2019) come the findings set out here.

“Also recorded” adds a separate entry of the source.

In series [1] the target is T1, SIRT2 (Homo sapiens, UniProt Q8IXJ6).
T1 sequence (Q8IXJ6 1-389): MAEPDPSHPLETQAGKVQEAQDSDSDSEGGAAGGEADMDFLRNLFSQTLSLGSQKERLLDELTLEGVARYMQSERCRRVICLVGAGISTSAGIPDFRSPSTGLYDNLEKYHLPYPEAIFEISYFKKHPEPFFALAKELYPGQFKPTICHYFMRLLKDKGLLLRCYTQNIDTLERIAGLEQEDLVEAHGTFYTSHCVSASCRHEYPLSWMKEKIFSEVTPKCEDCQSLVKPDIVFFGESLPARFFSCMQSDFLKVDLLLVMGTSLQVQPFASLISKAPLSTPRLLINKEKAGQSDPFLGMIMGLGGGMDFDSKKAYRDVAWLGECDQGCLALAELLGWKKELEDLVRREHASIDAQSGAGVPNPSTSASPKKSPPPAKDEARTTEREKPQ
The series is described as follows: LC-MS detection of covalent intermediate with NAD+ in the presence of SIRT2. Conditions: incubated with an excess of SIRT2 and NAD+. In kind it is biochemical.

Series [2] is described as follows: Mouse body weight in xenograft study. Type of series: in vivo, NSG mice. The conditions noted are these: treatment groups of xenograft study, intraperitoneal.
In series [3] the test system is p53 acetylation in HCT116 cells. The series is described as follows: p53 K382 acetylation by western blot. The conditions noted are these: for acetyl p53 (K382) levels: HCT116, 25 μM inhibitor with 400 nM TSA, 6 hours; for dose dependence of acetyl p53 levels: HCT116, 10–50 μM inhibitor with Trichostatin A.
The next series has as its system HCT116 xenograft. Briefly: HCT116 xenograft mice study. Conditions: 25 mg/kg intraperitoneal, every day. In kind it is in vivo, NSG mice.
The next series deals with HCT116 cells. The series is described as follows: Soft agar colony formation assay. In kind it is cell-based, human. The conditions noted are these: at a concentration of 10 μM and greater.
Series [4] deals with α-tubulin acetylation in HCT116 cells. The series is described as follows: α-tubulin acetylation by immunofluorescence. Type of series: cell-based, human. Conditions: six hours.
In series [5] the target is T1, SIRT2. The series is described as follows: Enzyme IC50 assay, acetyl H3K9 peptide, liquid chromatography. In kind it is biochemical. Conditions: relative selectivity for SIRT2 over SIRT1, Table 1.
Another series has as its target T2, SIRT1 (Homo sapiens, UniProt Q96EB6).
T2 sequence (Q96EB6 1-747): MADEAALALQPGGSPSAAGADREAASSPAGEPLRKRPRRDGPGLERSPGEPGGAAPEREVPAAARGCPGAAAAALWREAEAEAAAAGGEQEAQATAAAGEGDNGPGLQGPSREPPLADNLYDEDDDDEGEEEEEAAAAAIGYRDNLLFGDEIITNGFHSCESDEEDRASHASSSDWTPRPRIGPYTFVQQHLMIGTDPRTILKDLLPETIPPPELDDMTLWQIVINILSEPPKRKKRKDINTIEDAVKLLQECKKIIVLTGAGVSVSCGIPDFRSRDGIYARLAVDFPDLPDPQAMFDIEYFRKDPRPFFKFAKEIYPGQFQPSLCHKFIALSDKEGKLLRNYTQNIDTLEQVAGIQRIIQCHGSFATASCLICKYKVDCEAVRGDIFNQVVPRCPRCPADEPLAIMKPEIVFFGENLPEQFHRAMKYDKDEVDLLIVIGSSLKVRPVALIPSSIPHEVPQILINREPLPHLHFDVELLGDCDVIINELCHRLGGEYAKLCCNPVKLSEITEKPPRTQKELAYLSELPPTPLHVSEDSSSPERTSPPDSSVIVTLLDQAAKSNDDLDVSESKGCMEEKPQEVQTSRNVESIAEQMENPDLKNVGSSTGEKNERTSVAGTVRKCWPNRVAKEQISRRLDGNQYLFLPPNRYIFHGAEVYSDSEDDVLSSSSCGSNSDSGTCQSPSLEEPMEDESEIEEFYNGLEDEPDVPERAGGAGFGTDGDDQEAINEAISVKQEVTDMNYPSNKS
Described as above. In kind it is biochemical. The conditions noted are these: in vitro.

Regarding `CCCCCCCCNC(=S)NCCCC[C@H](NC(=O)OCc1ccccc1)C(=O)Nc1ccccc1` [AF8, benzyl (S)-(6-(3-octylthioureido)-1-oxo-1-(phenylamino)hexan-2-yl)carbamate], the “covalent inhibitor-ADP-ribose intermediate by LC-MS” value at SIRT2 [1] is on record as “detected”. For the same compound, the “mouse body weight loss” value in series [2] is listed as “No significant weight loss”. Also, in series [3], the “acetyl p53 (K382) levels” value is reported as “did not increase the levels of acetyl p53; also recorded: did not noticeably increase p53 acetylation” and the “dose dependence of acetyl p53 levels” value is on record as “did not increase acetyl p53 levels in a dose dependent manner”. Also, the “tumor growth by volume and weight” value in the series on HCT116 xenograft is “slightly decreased tumor growth by volume and weight but did not result in a statistically significant difference”. Also, the “growth of HCT116 cells in soft agar” value with HCT116 cells is reported as “completely inhibited”. The α-tubulin acetylation entry in series [4] (HCT116, 25 μM inhibitor) was “extensive α-tubulin hyperacetylation; also recorded: increased α-tubulin acetylation”. The α-tubulin acetylation result in series [4] (HCT116, 50 μM inhibitor) is reported as “extensive α-tubulin hyperacetylation; also recorded: also increased α-tubulin acetylation”.
Take `CCCCCCCCCCCCNC(=S)NCCCC[C@H](NC(=O)OCc1ccccc1)C(=O)Nc1ccccc1` [AF12, Benzyl (S)-(6-(3-dodecylthioureido)-1-oxo-1-(phenylamino)hexan-2-yl)carbamate]: the “SIRT2/SIRT1 Selectivity” value at SIRT2 [5] was above 1000. Moreover, the “inhibition of SIRT1 deacetylase activity (in words)” value on SIRT1 is listed as “no inhibition”.
Regarding `CCCCCCCCCCNC(=S)NCCCC[C@H](NC(=O)OCc1ccccc1)C(=O)Nc1cccc(O)c1` [Compound C10, Benzyl (S)-(6-(3-decylthioureido)-1-((3-hydroxyphenyl)amino)-1-oxohexan-2-yl)carbamate], in series [3], the “acetyl p53 (K382) levels” value is on record as “moderately increased the acetylation of p53; also recorded: moderately increased acetyl p53 levels” and the “dose dependence of acetyl p53 levels” value is on record as “dose dependent increase in acetyl p53 levels; also recorded: dose dependent increase of acetyl p53”. Besides, the α-tubulin acetylation result in series [4] (HCT116, 25 μM inhibitor) was “more strongly increased α-tubulin acetylation; also recorded: increased α-tubulin acetylation”. Also, the α-tubulin acetylation entry in series [4] (HCT116, 50 μM inhibitor) is recorded as “increased α-tubulin acetylation”.
As to `CCCCCCCCCCNC(=S)NCCCC[C@H](NC(=O)OCc1ccccc1)C(=O)Nc1ccccc1` [AF10, Benzyl (S)-(6-(3-decylthioureido)-1-oxo-1-(phenylamino)hexan-2-yl)carbamate], at SIRT2 [5], the “SIRT2/SIRT1 Selectivity” value is on record as above 1000. In addition, the “mouse body weight loss” value in series [2] is reported as “No significant weight loss”. The “inhibition of SIRT1 deacetylase activity (in words)” value against SIRT1 is reported as “no inhibition”. Also, in series [3], the “acetyl p53 (K382) levels” value is “did not increase the levels of acetyl p53; also recorded: did not noticeably increase p53 acetylation” and the “dose dependence of acetyl p53 levels” value is on record as “very slight increase in acetyl p53”. In the series on HCT116 cells, the “growth of HCT116 cells in soft agar” value was “completely inhibited”. Further, the α-tubulin acetylation entry in series [4] (HCT116, 25 μM inhibitor) is listed as “extensive α-tubulin hyperacetylation; also recorded: increased α-tubulin acetylation”. Moreover, the α-tubulin acetylation entry in series [4] (HCT116, 50 μM inhibitor) is “extensive α-tubulin hyperacetylation; also recorded: also increased α-tubulin acetylation”.
For `CCCCCCCCCCCCCC(=S)NCCCC[C@H](NC(=O)OCc1ccccc1)C(=O)Nc1ccccc1` [TM, reference compound], the “acetyl p53 (K382) levels” value in series [3] is recorded as “did not increase the levels of acetyl p53”. For the same compound, the α-tubulin acetylation entry is “increased α-tubulin acetylation” in series [4] (HCT116, 25 μM inhibitor) and “also increased α-tubulin acetylation” in series [4] (HCT116, 50 μM inhibitor).
With `CCCCCNC(=S)NCCCC[C@H](NC(=O)OCc1ccccc1)C(=O)Nc1cccc(O)c1` [Compound C5, Benzyl (S)-(1-((3-hydroxyphenyl)amino)-1-oxo-6-(3-pentylthioureido)hexan-2-yl)carbamate], the “acetyl p53 (K382) levels” value in series [3] is given as “moderately increased the acetylation of p53; also recorded: moderately increased acetyl p53 levels”. In addition, the α-tubulin acetylation entry in series [4] (HCT116, 25 μM inhibitor) is “slightly increased α-tubulin acetylation”; in series [4] (HCT116, 50 μM inhibitor), “increased α-tubulin acetylation; also recorded: more robustly increased acetylation”.
Consider `CCCNC(=S)NCCCC[C@H](NC(=O)OCc1ccccc1)C(=O)Nc1cccc(O)c1` [Compound C3, Benzyl (S)-(1-((3-hydroxyphenyl)amino)-1-oxo-6-(3-propylthioureido)hexan-2-yl)carbamate], for which, in series [3], the “acetyl p53 (K382) levels” value is reported as “did not increase the acetylation of p53”. For the same compound, the α-tubulin acetylation entry in series [4] (HCT116, 25 μM inhibitor) is given as “did not increase the acetylation of α-tubulin”; in series [4] (HCT116, 50 μM inhibitor), “did not increase the acetylation of α-tubulin”.
